In ChEMBL document CHEMBL4813939, “Diterpenoids and Diacetylenes from the Roots of Aralia cordata with Inhibitory Effects on Nitric Oxide Production” (J Nat Prod, 2021):

Tests used:
RAW264.7 [1] = experiment: Anti-inflammatory activity in mouse RAW264.7 cells assessed as inhibition of LPS-induced NO production preincubated for 1 hr followed by LPS stimulation and measured after 24 hrs by Griess reagent based assay; assay type: functional, cell-based
RAW264.7 [2] = experiment: Cytotoxicity against mouse RAW264.7 cells assessed as reduction in cell viability by MTT assay; assay type: cell-based

SMILES	IC50 (RAW264.7 [1])	Activity (RAW264.7 [2])
C[C@@]12CCC[C@@](C)(C(=O)O)[C@H]1CC[C@]13C=C(CO)[C@H](CC[C@H]12)C3	47.8 µM	Non-Toxic
C=C[C@H](O)C#CC#C[C@@H](O)/C=C\CCCCCCC	5.4 µM	Non-Toxic
CC(C)CC(=O)OC[C@@]1(O)C[C@@]23CC[C@H]4[C@@](C)(CCC[C@@]4(C)C(=O)O)[C@@H]2CC[C@@H]1C3	28.2 µM	Non-Toxic
C=C[C@]1(C)C=C2CC[C@@H]3[C@](C)(CO)CCC[C@@]3(C)[C@@H]2CC1	10.2 µM	Non-Toxic
CC(C)CC(=O)OC[C@H](O)[C@]1(C)C=C2CC[C@H]3[C@@](C)(CCC[C@]3(C)C(=O)O)[C@@H]2CC1	35.1 µM	Non-Toxic
C=C[C@@]1(C)CCC2=C(C1)C(=O)C[C@@H]1[C@](C)(C(=O)O)CCC[C@@]21C	14.9 µM	Non-Toxic
C[C@@]12CCC[C@@](C)(C(=O)O)[C@H]1CC[C@]13C=C(C=O)[C@H](CC[C@H]12)C3	14.2 µM	Non-Toxic
C=CCCCCC/C=C\[C@@H](C#CC#C[C@@H](O)CC)OC(C)=O	2.3 µM	Non-Toxic
C=CCCCCC/C=C\[C@H](O)C#CC#C[C@@H](O)CC [DENDROARBOREOL A]	40.5 µM	Non-Toxic
N=C(N)NN [PIMAGEDINE]	18.7 µM	–

The next lines start with results.

IC50 (RAW264.7 [1])	SMILES	Activity (RAW264.7 [2])
51.1 µM	C[C@@]12CCC[C@@](C)(C(=O)O)[C@H]1CC[C@]13C=C(C(=O)O)[C@H](CC[C@H]12)C3	Non-Toxic
44 µM	C=C/C(C)=C\C[C@@H]1C(=C)CC[C@@H]2[C@](C)(CO)CCC[C@@]12C	Non-Toxic
10 µM	C=C[C@@]1(C)CC=C2[C@@H](CC[C@@H]3[C@](C)(C(=O)O)CCC[C@@]23C)C1=O	Non-Toxic
11.5 µM	C=C[C@@]1(C)CCC2=C(CC[C@@H]3[C@](C)(C(=O)O)CCC[C@@]23C)C1=O	Non-Toxic
69.4 µM	C[C@@]12CCC[C@@](C)(C(=O)O)[C@H]1CCC1=C[C@@](C)([C@H]3CO3)CC[C@H]12	Non-Toxic
10.6 µM	C=C[C@]1(COC(=O)CC(C)C)C=C2CC[C@H]3[C@@](C)(CCC[C@@]3(C)C(=O)O)[C@@H]2CC1	Non-Toxic
17.6 µM	C=C[C@@]1(C)CC=C2C(CC[C@@H]3[C@](C)(CO)CCC[C@@]23C)C1 (stereo partly drawn)	Non-Toxic
21.7 µM	C=C[C@@]1(C)CCC2=C(C1=O)[C@H](O)C[C@@H]1[C@](C)(C(=O)O)CCC[C@@]21C	Non-Toxic
66.8 µM	C=C[C@]1(C)C=C2C(=O)C[C@H]3[C@@](C)(CCC[C@@]3(C)C(=O)O)[C@@H]2CC1	Non-Toxic
1.1 µM	C=CCCCCC/C=C\[C@H](O)C#CC#CC(CC)OC(=O)/C=C/c1ccc(O)cc1 (stereo partly drawn)	Non-Toxic
5.4 µM	C=C1C[C@@]23CC[C@@H]4[C@](C)(CO)CCC[C@@]4(C)[C@@H]2CC[C@@H]1C3	Non-Toxic
25.4 µM	C=C1[C@@H]2CC[C@H]3[C@]4(C)CCC[C@@](C)(C(=O)O)[C@H]4CC[C@]3(C2)[C@H]1O	Non-Toxic
